The structures appear in SMILES notation. ≈ marks a conversion by molar mass, not a printed value. Positions of bridges follow the written chain, without caps; N, C: chain ends. Residues, ends and D or L forms follow the SMILES beside them.

Test [1] has as its system Vero. In words: Cytotoxicity against African green monkey Vero cells. It is filed as cell-based. The conditions noted are these: Chlorocebus sabaeus.
Another test has as its system A2780cisR. Kind of test: Cytotoxicity against human A2780cisR cells after 72 hrs by MTT assay. It is filed as functional, cell-based.
Another test deals with A2780. Kind of test: Cytotoxicity against human A2780 cells after 72 hrs by MTT assay. To be noted: A2780, 72 h. It is filed as functional, cell-based.
A further test relates to SW480. Kind of test: Cytotoxicity against human SW480 cells by MTT assay. It is filed as functional, cell-based.
A further test relates to PC-12. In words: Cytotoxicity against rat PC12 cells by MTT assay. It is filed as functional, cell-based.
For a further test, the system named is L5178Y. Kind of test: Cytotoxicity against mouse L5178Y cells by MTT assay. It is filed as functional, cell-based.
The next test has as its system NCI-H460. In words: Cytotoxicity against human NCI-H460 cells. It is filed as functional, cell-based.
The subject of test [2] is MCF7. Kind of test: Cytotoxicity against human MCF7 cells by resazurin microplate assay. It is filed as functional, cell-based.
A further test deals with NCI-H187. In words: Cytotoxicity against human NCI-H187 cells by resazurin microplate assay. It is filed as functional, cell-based.
A short description of test [3]: Cytotoxicity against human KATO III cells after 72 hrs by MTT assay. It is filed as functional, cell-based.
The subject of test [4] is Vero. Kind of test: Cytotoxicity against African green monkey Vero cells by resazurin microplate assay. It is filed as cell-based. To be noted: Chlorocebus sabaeus.
The test system of a further test is OVCAR-3. In words: Cytotoxicity against human OVCAR3 cells assessed as reduction in cell viability after 72 hrs by CyQuant dye-based assay. It is filed as functional. To be noted: OVCAR-3, 72 h.
Another test concerns HeLa. Kind of test: Cytotoxicity against human HeLa cells after 48 hrs by sulforhodamine B assay. It is filed as functional, cell-based.
A further test addresses DNA topoisomerase I (Bos taurus, UniProt F1MN93). Kind of test: Inhibition of calf thymus DNA topoisomerase 1 assessed as decrease in relaxation of supercoiled pBR322 DNA after 30 mins by Genview nucleic acid staining based agarose gel electrophoresis.
Test [5] deals with A549. In words: Cytotoxicity against human A549 cells after 24 hrs by MTT assay. It is filed as functional, cell-based. The conditions noted are these: A549, 24 h.
Test [6] relates to HepG2. In words: Cytotoxicity against human HepG2 cells after 24 hrs by MTT assay. It is filed as functional, cell-based. The conditions noted are these: HepG2, 24 h.
The subject of test [7] is MCF7. Kind of test: Cytotoxicity against human MCF7 cells after 24 hrs by MTT assay. It is filed as functional, cell-based. The conditions noted are these: MCF7, 24 h.
In test [8] the test system is A549. In words: Cytotoxicity against human A549 cells after 48 hrs by MTT assay. It is filed as functional, cell-based. The conditions noted are these: Homo sapiens, A549, 48 h; read-out: IC50.
In another test the test system is HCT-116. In words: Cytotoxicity against human HCT116 cells after 48 hrs by MTT assay. It is filed as functional, cell-based. To be noted: HCT-116, 48 h.
Test [9] concerns HepG2. Kind of test: Cytotoxicity against human HepG2 cells after 48 hrs by MTT assay. It is filed as functional, cell-based. To be noted: HepG2, 48 h.
The subject of another test is HL-60. In words: Cytotoxicity against human HL60 cells by XTT assay. It is filed as functional, cell-based.
A further test deals with MOLT-3. In words: Cytotoxicity against human MOLT3 cells by XTT assay. It is filed as functional, cell-based.
Another test has as its system MDA-MB-231. Kind of test: Cytotoxicity against human MDA-MB-231 cells by MTT assay. It is filed as functional, cell-based.
The test system of test [10] is HepG2. Kind of test: Cytotoxicity against human HepG2 cells by MTT assay. It is filed as functional, cell-based.

Chain of DNA topoisomerase I (F1MN93 whole entry): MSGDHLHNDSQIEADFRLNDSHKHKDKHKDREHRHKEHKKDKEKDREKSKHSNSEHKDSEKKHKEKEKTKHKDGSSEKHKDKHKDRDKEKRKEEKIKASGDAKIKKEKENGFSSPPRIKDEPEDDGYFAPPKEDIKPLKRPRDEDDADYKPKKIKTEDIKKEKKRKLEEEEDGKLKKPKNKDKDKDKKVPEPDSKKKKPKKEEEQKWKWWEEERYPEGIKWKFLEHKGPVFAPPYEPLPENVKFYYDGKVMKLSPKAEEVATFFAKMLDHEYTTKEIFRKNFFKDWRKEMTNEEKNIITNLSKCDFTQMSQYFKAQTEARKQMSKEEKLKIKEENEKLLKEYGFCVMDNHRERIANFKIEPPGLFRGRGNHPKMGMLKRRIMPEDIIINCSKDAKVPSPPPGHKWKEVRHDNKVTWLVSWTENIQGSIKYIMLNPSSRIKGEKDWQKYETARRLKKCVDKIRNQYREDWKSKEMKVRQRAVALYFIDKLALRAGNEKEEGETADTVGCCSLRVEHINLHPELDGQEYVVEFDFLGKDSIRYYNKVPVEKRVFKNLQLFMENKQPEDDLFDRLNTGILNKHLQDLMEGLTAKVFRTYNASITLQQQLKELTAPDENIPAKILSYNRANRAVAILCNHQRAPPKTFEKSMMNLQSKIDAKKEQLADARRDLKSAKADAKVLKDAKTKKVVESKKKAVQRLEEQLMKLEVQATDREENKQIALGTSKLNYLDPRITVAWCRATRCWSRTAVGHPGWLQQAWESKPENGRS

`C[C@H]1C/C=C/[C@H]2[C@@H]3O[C@]3(C)[C@@H](C)[C@H]3[C@H](Cc4ccc(O)cc4)NC(=O)[C@]32OC(=O)O/C=C/[C@@](C)(O)C1=O`: 1.19 µM corresponded to half-maximal inhibition in the test on Vero [1] (IC50).

For `O=C1N2[C@H]3C(=CC=C[C@@H]3O)C[C@]23SS[C@]12C[C@H]1[C@@H]([C@@H](O)C=C[C@@H]1O)N2C3=O`, the results for the IC50 with A2780cisR and with A2780 were 0.661 µM and 0.664 µM, respectively.

Regarding `CC1=C(C=O)[C@@]2(C)CCCC(C)(C)[C@@H]2C[C@@H]1O`, inhibition in the test with SW480 was half-maximal at 8.72 µM (IC50).

Regarding `COc1cccc2c1C(=O)c1c(O)c3c(c(O)c1C2=O)C[C@@](O)(C(=O)CO)C[C@@H]3O[C@H]1C[C@H](N)[C@H](O)[C@H](C)O1` [DOXORUBICIN], the half-maximal inhibitory concentration (IC50) came to 5.71 µM in the test on PC-12 and 4.6 µM with L5178Y.

For `C=CC1(C)c2[nH]c3cc4c(cc3c2C[C@H]2C(=O)N3CCC[C@H]3C(=O)N21)C=CC(C)(C)O4` (some centres not stated), the IC50 with NCI-H460 came to 69.3 µM.

Turning to `C[C@H]1[C@@H](/C=C2\C=CC(=O)O2)[C@H]2C=CC=C[C@@H]1O2`, the IC50 (in the test on MCF7 [2]; in the test with NCI-H187; in test [3]; with Vero [4]) was 1.95 to 40.2 µg/mL (≈ 8.47 to 174 µM) in each case.

Take `CCCCCCCCCCC[C@@H](C)[C@@H]1CC(=O)N[C@@H]([C@H](C)O)C(=O)N[C@@H](C)C(=O)N[C@H](C)C(=O)N[C@@H](CCC(N)=O)C(=O)N[C@H](Cc2ccc(O)cc2)C(=O)N[C@@H]([C@@H](C)CC)C(=O)O1`: the IC50 in the test with PC-12 came out at 9.55 µM; in the test on L5178Y, 5.71 µM.

In turn, `CC1(C)C=Cc2cc3c(cc2O1)NC(=O)[C@]31C[C@@]23NC(=O)[C@]4(CCCN4C2=O)C[C@@H]3C1(C)C` displayed an IC50 with NCI-H460 of 55.9 µM.

On to `CC1=CC[C@H]2C(C)(C)CCC[C@]2(C)[C@H]1C[C@@]12O[C@@H]1C(=O)C(CO)=C[C@H]2O`, for which the IC50 with OVCAR-3 turned out to be 0.5 µM.

In the case of `C/C=C/[C@@H]1[C@@H]2C[C@@H](C)CC[C@@H]2[C@](C)(O)[C@@H]2Oc3c(-c4ccc(O)cc4)c[nH]c(=O)c3C(=O)[C@@H]12`, inhibition in the test with HeLa was half-maximal at 8.8 µM (IC50).

Regarding `Cc1cc(O)c2c(c1)[C@H](O)[C@H]1C=C[C@H](O)[C@@H](O)[C@@H]1C2=O`, at DNA topoisomerase I, the IC50 amounted to 23 µM.

`CC[C@H](C)[C@@H]1NC(=O)[C@@H]2CSSC[C@H](NC(=O)[C@H](CC(C)C)NC(=O)[C@H](C(C)C)NC1=O)C(=O)N2` (cyclo(CCIVL); disulfide 1-2): the figures for the IC50 in the test on A549 [5], in the test with HepG2 [6] and with MCF7 [7] were 2.42 µM, 36 µM and 0.65 µM, respectively.

With `COc1c(OC)c2c(c(OC)c1-c1c[nH]c3ccccc13)O[C@@H]1Nc3ccccc3[C@]21OC`, the values for the IC50 in the test on A549 [8], with HCT-116 and in the test with HepG2 [9] were 3.5 µg/mL (≈ 7.87 µM), 6.4 µg/mL (≈ 14.4 µM) and 2.5 µg/mL (≈ 5.62 µM), respectively.

Consider `CC1(C)CC[C@@H](O)[C@](C)(O)[C@@]12CC=C(C=O)CC2`, for which the values for the IC50 with HL-60 and with MOLT-3 were 159 µM and 165 µM, respectively.

Regarding `COc1ccc2c(c1)N(CC=C(C)C)C(=O)[C@@]21C=C2C(=O)N3CCC[C@H]3C(=O)N2[C@H]1C=C(C)C`, the results for the IC50 in the test on MDA-MB-231 and with HepG2 [10] were 35.5 µM and 14.1 µM, respectively.
